Measurements: patent US7091218B1 (priority 1999, dated 2006)
Where a name gives a salt, the structure may show the parent alone.

Key:
acetylcholinesterase = biological target: T1, acetylcholinesterase (Rattus norvegicus, UniProt P37136); experiment: biochemical; conditions: rat brain homogenate as enzyme source; acetylthiocholine substrate, DTNB, absorbance at 412 nm
T1 construct: Using rat brain homogenate as a source of acetylcholinesterase; from tissue; host or cells: rat brain homogenate
T1 sequence (P37136 32-614): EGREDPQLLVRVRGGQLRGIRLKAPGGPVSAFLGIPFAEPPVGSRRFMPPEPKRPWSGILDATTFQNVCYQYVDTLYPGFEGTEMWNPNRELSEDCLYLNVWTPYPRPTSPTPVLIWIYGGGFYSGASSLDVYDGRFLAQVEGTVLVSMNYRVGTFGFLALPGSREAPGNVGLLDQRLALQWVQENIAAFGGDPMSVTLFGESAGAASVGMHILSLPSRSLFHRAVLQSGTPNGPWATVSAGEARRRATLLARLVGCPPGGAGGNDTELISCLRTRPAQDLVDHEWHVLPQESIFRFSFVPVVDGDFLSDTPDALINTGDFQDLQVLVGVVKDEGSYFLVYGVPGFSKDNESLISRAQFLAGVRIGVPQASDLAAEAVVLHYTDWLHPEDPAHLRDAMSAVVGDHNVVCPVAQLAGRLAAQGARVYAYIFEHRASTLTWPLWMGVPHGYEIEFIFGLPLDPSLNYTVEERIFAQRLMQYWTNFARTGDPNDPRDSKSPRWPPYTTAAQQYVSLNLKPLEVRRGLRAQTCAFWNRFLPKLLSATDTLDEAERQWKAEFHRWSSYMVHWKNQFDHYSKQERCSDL
Method: In Vitro Acetylcholinsterase Inhibitory Effect
Using rat brain homogenate as a source of acetylcholinesterase, esterase activity was assayed in accordance with the method of Ellman et al. ^1). That is, acetylthiocholin as a substrate, a test compound and DTNB (5,5′-dithiobis(2-nitrobenzoic acid)) were added to […] brain homogenate, and after incubation, the produced thiocholine was reacted with DTNB to produce a yellow product. This was measured as a change in absorbance at 412 nm to obtain acetylcholineesterase activity. The acetylcholineesterase inhibiting activity of each test compound was obtained as 50% inhibition concentration (IC50). Note that the test compounds were used after dissolving them in physiological saline. Ellman, G. L., Courtney, K. D., Andres, V. and Featherstone, R. M., (1961), Biochem. Pharmacol., 7, 88–95.

## CCOc1cc2c(cc1OCC)C(=O)C(Cl)(CC1CCN(Cc3ccccc3)CC1)C2 (stereo not drawn) [Example 6, hydrochloride]
acetylcholinesterase
  IC50: 2 nM

## COc1cc2c(cc1OC)C(=O)C(CC1CCN(Cc3ccccc3)CC1)(N=[N+]=[N-])C2.Cl (stereo not drawn)
other
  melting point: 153 to 154 °C

## COc1cc2c(cc1OC)C(=O)C(Cl)(CC1CCN(Cc3ccccc3)CC1)C2 (stereo not drawn) [Example 1, 1-Benzyl-4-[(5,6-dimethoxy-2-chloro-1-indanon)-2-yl]methylpiperidine hydrochloride]
acetylcholinesterase
  IC50: 2 nM
